Laboratory results as given in paper PMC9414910, “Optimized ^68Ga-Labeled Urea-Based PSMA-Targeted PET Tracers for Prostate Cancer” (Pharmaceuticals, 2022).
Values belong to the compound of their own block, whether it stands above or below them.

Columns and labels:
[1] = molecular target: T1, Recombinant human PSMA (rhPSMA) (Homo sapiens, UniProt Q04609); test: NAALADase assay (enzyme-based assay on rhPSMA); assay type: biochemical; details: NAAG substrate, unlabeled ligands, read-out: Ki (PSMA inhibition constant)
T1 construct: purchased R&D systems, Wiesbaden, Germany
Protocol: (§1) The partition coefficient of each novel radiotracer was determined using an octanol–water system (v/v = 1:1). The in vitro stability was determined using two systems (PBS and 5% BSA). The Ki value was measured by the NAALADase assay. The 22Rv1 and PC-3 cell lines were used for the cell-binding study and establishment of the tumor-bearing model (detailed information is shown in the Supplementary Materials).
The PSMA-inhibitory activity of novel PSMA ligands was analyzed by performing an enzyme-based assay on rhPSMA [11].
PBS) and reported as log p ± SD.
The in vitro stability of radiotracers was determined by measuring radiochemical purity (RCP) in […] and 5% bovine serum albumin (BSA) at 37 °C at different time intervals (30 min, 60 min, 120 min) using radio-HPLC.
Recombinant human PSMA (rhPSMA, R&D systems, Wiesbaden, Germany) was diluted in assay buffer (50 mM HEPES, 0.1 M NaCl, pH 7.5) to 0.4 μg/mL. […]
250 μL of ortho-phthaldialdehyde solution (OPA, 15 mM, Sigma, Taufkirchen, Germany) was added to each vial and incubated for 3 min at room temperature. 200 μL aliquot of each vial was added into a 96 black well plate and read at excitation and emission wavelengths of 350 and 450 nm using a microplate reader. […] The data were analyzed by the one-site total binding regression algorithm of GraphPad

[2] = Radiotoxicity study in male ICR mice; assay type: in vivo
22Rv1 tumor-bearing mice = test: Biodistribution in 22Rv1 tumor-bearing mice; details: for Uptake Blood, Mean / Uptake Bone, Mean / Uptake Heart, Mean / Uptake Kidney, Mean / Uptake Liver, Mean / Uptake Lung, Mean / Uptake Muscle, Mean / Uptake Spleen, Mean / Uptake Tumor (22Rv1), Mean: 0.74 MBq, n = 3
Protocol: (§2) The animal studies were approved by the institutional animal care and use committee of the Chinese PLA General Hospital. Healthy male ICR mice were injected with either a novel radiotracer (37 MBq in 150 μL) or saline (150 μL) for the radiotoxicity evaluation. […] Biodistribution and micro-PET studies were performed on 22Rv1 and PC-3 xenograft models, and 2-PMPA was used as the PSMA blocker (all details are shown in the Supplementary Materials).
BALB/c nude mice (male, 4-6 weeks) were inoculated subcutaneously with […]
100 mm3, the mice underwent biodistribution study and Micro-PET imaging.
The 22Rv1 tumor-bearing mice were injected with each novel radiotracer or […]
[…] Mice were sacrificed at different time points p.i. (10 min, 30 min, 60 min), tumors and interested organs were harvested, weighed and measured by a γ-counter, the results were expressed as the percentage of injected dose per gram (ID%/g).
Table S1. Uptake values for ex vivo tissues of [ 68Ga]Ga-PSMA-Q (0.74 MBq/mice) in 22Rv1 tumor-bearing mice (10, 30 and 60 min p.i., n = 3/time point).

[3] = Blood pharmacokinetics in male ICR mice; assay type: in vivo; details: 7.4 MBq i.v., two-compartment model
Protocol: Injection of novel radiotracers or [68Ga]Ga-PSMA-617 or [68Ga]Ga-PSMA-11 […]
mice (5 mice/group), and the blood sample (5 μL) of each mouse was collected by cutting down the tail end at different time points post injection. The radioactivity of blood samples were measured by a γ-counter and the pharmacokinetics data was calculated using the WinNonlin software.
Figure S3. Time-activity curves of the blood samplesafter injection of 7.4 MBq of [68Ga]Ga-PSMA-4PY (A), [68Ga]Ga-PSMA-Q (B),[68Ga]Ga-PSMA-P (C), [68Ga]Ga-PSMA-617 (D), [68Ga]Ga-PSMA-11 (E), [68Ga]Ga-PSMA-Q-1 (F), [68Ga]Ga-PSMA-Q-2 (G) and [68Ga]Ga-PSMA-Q-3 (H).
(1 picture or pasted object on this page, not shown here)

22Rv1 cells (mild PSMA+) = test: Cell uptake / binding in 22Rv1 cells; assay type: cell-based, human; details: 60 min incubation, 37 °C
From the text: Cell lines were kindly provided by the stem cell bank of the Chinese Academy of Sciences. The human prostate cancer epithelial cell lines 22Rv1 (mild PSMA+) and PC-3 (with no PSMA receptor) were used to evaluate the specific cell-binding affinity of the radiotracers, and the results were expressed as percentages of injected activity, IA%/10^6.
Cell Lines and Culture Condition
Cell lines were kindly provided by the stem cell bank, the Chinese Academy of Sciences. The human prostate cancer cell lines 22Rv1 ( mild PSMA positive) and PC3 (PSMA negative) were cultured in RPMI 1640 medium or F12K medium (CORNING, America), supplemented with 10% Fetal Bovine Serum
(GIBCO, The Netherlands) and 1% penicillin-streptomycin (CORNING, America) in a humidified incubator at 37 °C under 5% CO2. Each cell line was passaged when it was at around 80-90% confluence, and harvested using trypsin-ethylenediaminetetraacetic acid (trypsin-EDTA; 0.25% trypsin, 0.02% EDTA, all from KeyGEN BioTECH).
Cells were seeded separately in 24 well plates (1 x 10^5 cells in 1 mL medium/well) and incubated overnight, the medium was changed 2 h before the experiment. For the binding experiments, cells were incubated with novel […]
min, 30 min and 60 min (6 wells/time point). After incubation, the medium was removed and the cells were washed twice with ice-cold phosphate-buffered saline (0.5 mL). Finally, the cells were lysed by NaOH (0.5 M, 0.5 mL). Coincubation of 2-(phosphonomethyl) pentane-1,5-dioic acid […]
(2-PMPA) solution (2 μg/well) and each radiotracer for 60 min was conducted as the blocking experiment. The radioactivity of cells was measured by a γ-counter. The studies were performed in triplicate and the results were reported as the percentage injected activity (IA%/10^6 cells). […]

22Rv1 tumors = test: Micro-PET imaging in 22Rv1 tumor-bearing mice; assay type: in vivo; details: 60 min p.i.
Protocol: as §2
Table S9. Tumor-to-mu scle (T/M) ratio and tumor- to-kidney (T/K) rati o of radiotracers at 60 min p.i.
The Mice bearing 22Rv1 and PC-3 (n = 3/group) xenograft tumors were […]
Co-injection with 2-PMPA (50 μ g) and each novel tracer (7.4 MBq in 150 μL) was used for blocking. Then the mice were anesthetized with 3% (v/v) isoflurane and underwent Micro-PET scans with continuous 1% (v/v) isoflurane. The images were acquired at 60 min p.i.. In comparison, […]
into another group of mice (n = 3), and Micro-PET schedule was performed as […]
Imaging was performed on a Super Nova PET/CT scanner using a 100-mm-transaxial field of view for PET and 110-mm for CT.
Three-dimensional ordered-subsets expectation maximization reconstruction

[4] = Partition coefficient, octanol–water system; assay type: physicochemical; details: octanol–water (v/v = 1:1), n = 3
Protocol: as §1
PBS) and reported as log p ± SD. […]

[5] = 60 min p.i., listed as [68Ga]Ga-PSMA-Q
[6] = biodistribution, 22Rv1 tumor-bearing mice, 60 min p.i.

T1 sequence (Q04609 whole entry): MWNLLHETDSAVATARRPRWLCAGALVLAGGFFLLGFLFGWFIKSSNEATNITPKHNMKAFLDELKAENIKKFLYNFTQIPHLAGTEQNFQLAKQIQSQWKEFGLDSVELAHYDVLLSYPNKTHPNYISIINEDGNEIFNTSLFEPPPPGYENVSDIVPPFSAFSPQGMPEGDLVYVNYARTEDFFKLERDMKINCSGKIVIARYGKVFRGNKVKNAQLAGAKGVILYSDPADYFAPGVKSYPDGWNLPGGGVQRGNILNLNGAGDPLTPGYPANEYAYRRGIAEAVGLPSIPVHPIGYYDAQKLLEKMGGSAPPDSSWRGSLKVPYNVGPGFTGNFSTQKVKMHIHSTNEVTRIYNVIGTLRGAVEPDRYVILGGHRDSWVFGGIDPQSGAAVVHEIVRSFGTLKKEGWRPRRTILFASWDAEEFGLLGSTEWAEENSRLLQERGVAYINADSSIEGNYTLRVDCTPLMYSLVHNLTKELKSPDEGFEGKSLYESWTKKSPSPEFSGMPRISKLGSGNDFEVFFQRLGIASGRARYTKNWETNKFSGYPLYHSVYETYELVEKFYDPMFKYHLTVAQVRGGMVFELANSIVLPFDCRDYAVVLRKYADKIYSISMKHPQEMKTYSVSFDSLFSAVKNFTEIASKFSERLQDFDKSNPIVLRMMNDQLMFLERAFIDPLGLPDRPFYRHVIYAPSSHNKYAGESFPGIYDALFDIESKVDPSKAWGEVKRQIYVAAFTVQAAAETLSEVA

Ki [1]: 2.89 ± 1.07 nM
SMILES: O=C(O)CC[C@H](NC(=O)N[C@@H](CCCCNC(=O)[C@H](Cc1ccc2ccccc2c1)NC(=O)[C@H]1CC[C@H](CNC(=O)CN2CCN(CC(=O)O)CCN(CC(=O)O)CCN(CC(=O)O)CC2)CC1)C(=O)O)C(=O)O [PSMA-617, reference compound]

SMILES: O=C(O)CCC(NC(=O)NC(CCCCNC(=O)C(Cc1cc2ccc3cccc4ccc(c1)c2c34)NC(=O)C1CCC(CNC(=O)CN2CCN(CC(=O)O)CCN(CC(=O)O)CCN(CC(=O)O)CC2)CC1)C(=O)O)C(=O)O (centres unmarked) [PSMA-P]
Ki [1]: 42.4 ± 2.11 nM

SMILES: O=C([O-])CN1CCN(CC(=O)[O-])CCN(CC(=O)NCC2CCC(C(=O)NC(Cc3cnc4ccccc4c3)C(=O)NCCCCC(NC(=O)NC(CCC(=O)O)C(=O)O)C(=O)O)CC2)CCN(CC(=O)O)CC1.[68Ga+3] (centres unmarked) [[^68Ga]Ga-PSMA-Q]
Survival ([2]; 37 MBq in 150 μL, 14 days): did not die within 14 days
Routine blood tests and H&E staining of the main organs vs control ([2]; 37 MBq in 150 μL, vs saline): no significant differences
Acute radiotoxicity-related adverse events ([2]; toxicity experiments in mice): no acute radiotoxicity-related adverse events were observed
Uptake Blood, Mean (22Rv1 tumor-bearing mice; 10 min p.i.): 2.62 ID%/g
Uptake Bone, Mean (22Rv1 tumor-bearing mice; 10 min p.i.): 0.72 ID%/g
Uptake Heart, Mean (22Rv1 tumor-bearing mice; 10 min p.i.): 2.07 ID%/g
Uptake Kidney, Mean (22Rv1 tumor-bearing mice; 10 min p.i.): 8.79 ID%/g
Uptake Liver, Mean (22Rv1 tumor-bearing mice; 10 min p.i.): 2.13 ID%/g
Uptake Lung, Mean (22Rv1 tumor-bearing mice; 10 min p.i.): 1.10 ID%/g
Uptake Muscle, Mean (22Rv1 tumor-bearing mice; 10 min p.i.): 0.70 ID%/g
Uptake Spleen, Mean (22Rv1 tumor-bearing mice; 10 min p.i.): 2.16 ID%/g
Uptake Tumor (22Rv1), Mean (22Rv1 tumor-bearing mice; 10 min p.i.): 1.86 ID%/g
Uptake Blood, Mean (22Rv1 tumor-bearing mice; 30 min p.i.): 1.04 ID%/g
Uptake Bone, Mean (22Rv1 tumor-bearing mice; 30 min p.i.): 0.22 ID%/g
Uptake Heart, Mean (22Rv1 tumor-bearing mice; 30 min p.i.): 0.98 ID%/g
Uptake Kidney, Mean (22Rv1 tumor-bearing mice; 30 min p.i.): 5.91 ID%/g
Uptake Liver, Mean (22Rv1 tumor-bearing mice; 30 min p.i.): 1.14 ID%/g
Uptake Lung, Mean (22Rv1 tumor-bearing mice; 30 min p.i.): 0.76 ID%/g
Uptake Muscle, Mean (22Rv1 tumor-bearing mice; 30 min p.i.): 0.21 ID%/g
Uptake Spleen, Mean (22Rv1 tumor-bearing mice; 30 min p.i.): 1.73 ID%/g
Uptake Tumor (22Rv1), Mean (22Rv1 tumor-bearing mice; 30 min p.i.): 2.98 ID%/g
Uptake Blood, Mean (22Rv1 tumor-bearing mice; 60 min p.i.): 0.31 ID%/g
Uptake Bone, Mean (22Rv1 tumor-bearing mice; 60 min p.i.): 0.21 ID%/g
Uptake Heart, Mean (22Rv1 tumor-bearing mice; 60 min p.i.): 0.08 ID%/g
Uptake Liver, Mean (22Rv1 tumor-bearing mice; 60 min p.i.): 0.70 ID%/g
Uptake Lung, Mean (22Rv1 tumor-bearing mice; 60 min p.i.): 0.33 ID%/g
Uptake Muscle, Mean (22Rv1 tumor-bearing mice; 60 min p.i.): 0.13 ID%/g
Uptake Spleen, Mean (22Rv1 tumor-bearing mice; 60 min p.i.): 0.35 ID%/g
Uptake Tumor (22Rv1), Mean (22Rv1 tumor-bearing mice; 60 min p.i.): 4.06 ± 0.36 ID%/g
Uptake Kidney, Mean (22Rv1 tumor-bearing mice; [5]): 2.46 ID%/g
Uptake Tumor (22Rv1), Mean (22Rv1 tumor-bearing mice; [5]): 4.06 ID%/g
Tumor-to-kidney (T/K) ratio (22Rv1 tumor-bearing mice; [6]): 1.60 ± 0.08
Tumor-to-muscle (T/M) ratio (22Rv1 tumor-bearing mice; [6]): 31.44 ± 2.09
Clearance profile in the kidneys (22Rv1 tumor-bearing mice; within 60 min p.i.): washed out rapidly from the kidneys
Elimination half-life [3]: 17.86 ± 1.23 min
Uptake in 22Rv1 cells (22Rv1 cells (mild PSMA+)): 3.75 ± 0.35 IA%/10^6
SUVmax of tumor (22Rv1 tumors; 22Rv1 tumor, 7.4 MBq): 0.97 ± 0.24
Tumor-to-muscle ratio (micro-PET) (22Rv1 tumors; 22Rv1 tumor-bearing mice): 59.33 ± 5.72
Log p pH = 7.4 [4]: −3.24 ± 0.21
